From patent US9067896B2, “Crystalline forms of 3-(2,6-dichloro-3,5-dimethoxy-phenyl)-1-{6-[4-(4-ethyl-piperazin-1-yl) -phenylamino]-pyrimidin-4-yl}-1-methyl-urea and salts thereof” (Novartis AG, priority 2009, dated 2015)
Values after ≈ are worked out from the molar mass of the structure shown. Counter-ions that a name gives are not always drawn. Values belong to the molecule of their own block, whether it stands above or below them.

Legend:
Format in all cases: physicochemical
[1] = Determination of solubility (equilibration in solvent, filtrate by HPLC)
Procedure: Excess free base (free base of Formula I), its phosphate salt (the monophosphoric acid salt of the free base), or another acid salt was equilibrated in solvents for 1 day at 25±0.5° C. The resultant slurry was filtered and the filtrate used for solubility determination by HPLC.
Solubility of the monohydrate of the anhydrous and monohydrate free base was measured in various aqueous media (e.g., pH 6.8 buffer, pH 4.5 buffer, pH 1 buffer), including simulated and actual human fluids.
The human fluids were collected from 12 human subjects.
Solubility studies of the phosphate salt were undertaken in aqueous media and in human fluids at 24 hours.

[2] = Solid state stability; settings: one week at 80° C., sealed containers and 75% relative humidity, alone and with excipients as 1% mixture
Procedure: In the solid state, the samples were stressed for one week at 80° C., in sealed containers and under 75% relative humidity. […] The amount of degradation products of the anhydrous free base as assessed by HPLC was 1% or less (based on peak area), while the degradation of the phosphate salt accounted for 1.4% or less.

[3] = Polymorphic stability by XRPD (equilibration, crystallization, evaporation, precipitation, compression, granulation); parameters: key to XRPD Result, crystallization by evaporation: —: no change detected; settings: for XRPD Result, crystallization by evaporation: unstirred; for XRPD after crystallization from hot saturated solution: dissolved at 60° C., cooled in ice bath
Procedure: Slurries of samples were stirred at high speed for 24 hours at 25±0.5° C., filtered, and the solid collected analyzed by XRPD.
About 20 mg of the phosphate salt (form A) was equilibrated with 2 ml of a variety of solvents for at least 24 h at room temperature. Then the solution was filtered and the residue dried overnight at 50° C. under house vacuum. The solid obtained was investigated by XRPD. […]
About 20 mg of the phosphate salt (form A) was also equilibrated at about 50° C. with 2 ml solvent for at least 24 h. Then the solution was filtered and the residue dried overnight at 50° C. under house vacuum. The solid obtained was investigated by XRPD.
About 20 mg of the phosphate salt (form A) was dissolved in 2 ml solvent at 60° C. The solution was filtered. The clear filtrate obtained was cooled in an ice bath and agitated. The precipitate was collected on a filter, dried and investigated by XRPD.
About 20 mg of the phosphate salt (form A) was mixed with 2 ml solvent at 25° C. After stirring overnight, the solution was filtered. The filtrate was placed under nitrogen flow to evaporate the solvent. The residual solid was collected and investigated. The above evaporation was performed without stirring. Upon evaporation from THF/water (1:1) without stirring, a solid with XRPD pattern similar to that of the B form (see FIG. 1C), was obtained once. Subsequently, under these conditions, amorphous material, rather than form B, was obtained.
The same experiments (as described above for the 25° C. evaporation) were performed at 50° C.
Two different solvent combinations were tested. The phosphate salt (form A) was dissolved in DMSO where its solubility was high. A solvent (the anti-solvent) in which the form A was highly insoluble was added to the solution. The precipitate was collected on a filter, dried, and investigated by XRPD.
The phosphate salt (form A, 300 mg) was compressed for 5 minutes at 4000 pounds with a hydraulic press (diameter of the tablets 8 mm).
A solvent (water or ethanol) was added drop wise to the phosphate salt (form A) placed in a mortar until the solid in the mortar was sufficiently wet, and ground using a pestle until a paste-like consistency was obtained. The paste was dried at around 40° C. and under reduced pressure for >8 hours.

Solubility in mg/ml after 24 h ([1]; Fasted State Simulated Intestinal Fluid (FaSSIF), listed as Anhydrous Free Base): 0.001 mg/mL (≈ 1.78 µM) | Solubility in mg/ml after 24 h ([1]; Fed State Simulated Intestinal Fluid (FeSSIF), listed as Anhydrous Free Base): 0.148 mg/mL (≈ 264 µM) | Solubility in mg/ml after 24 h ([1]; HIF, fed, listed as Anhydrous Free Base): 0.004 mg/mL (≈ 7.14 µM) | Solubility in mg/ml after 24 h ([1]; Human gastric fluid (HGF), listed as Anhydrous Free Base): 0.001 mg/mL (≈ 1.78 µM) | Solubility in mg/ml after 24 h ([1]; Human intestinal fluid (HIF) fasted, listed as Anhydrous Free Base): 0.002 mg/mL (≈ 3.57 µM) | Solubility in mg/ml after 24 h ([1]; Simulated Gastric Fluid (SGF), listed as Anhydrous Free Base): 0.0497 mg/mL (≈ 88.7 µM) | solubility in common organic solvents (in words) ([1]; listed as anhydrous free base): sparingly to slightly soluble | Solubility ([1]; initial solubility test, Water): 1 µg/mL (≈ 1.78 µM) | Solubility ([1]; initial solubility test, pH3 Buffer): 200 µg/mL (≈ 357 µM) | solubility at 24 h ([1]; pH 1 HCl, 25 °C, pH 1, simulated gastric fluid, thermodynamic from solid, pH 1 HCl, read-out: Solubility in mg/ml after 24 h): 0.052 mg/mL (≈ 92.8 µM) | Solubility ([1]; pH 6.8 buffer, listed as anhydrous free base): ca. 0.00004 mg/mL | Solubility in mg/ml after 24 h ([1]; ph 4.5 Acetate, listed as Anhydrous Free Base): 0.008 mg/mL (≈ 14.3 µM) | Solubility in mg/ml after 24 h ([1]; ph 6.8 Phosphate): <LOQ* | Solubility ([1]; water (free base: pH 6.67), listed as anhydrous free base): ~0.09 µg/mL (≈ 0.161 µM) | amount of degradation products by HPLC (peak area) ([2]; listed as anhydrous free base): ≤ 1% | XRPD after equilibration with solvents ([3]; room temperature, water, ethanol, isopropanol, ethyl acetate, acetone): No new XRPD pattern was observed
Compound: CCN1CCN(c2ccc(Nc3cc(N(C)C(=O)Nc4c(Cl)c(OC)cc(OC)c4Cl)ncn3)cc2)CC1 [Free Base, 3-(2,6-Dichloro-3,5-dimethoxy-phenyl)-1-{6-[4-(4-ethyl-piperazin-1-yl)-phenylamino]-pyrimidin-4-yl}-1-methyl-urea]

Solubility in mg/ml after 24 h ([1]; Fasted State Simulated Intestinal Fluid (FaSSIF), listed as Phosphate Salt): 0.003 mg/mL | Solubility in mg/ml after 24 h ([1]; Fed State Simulated Intestinal Fluid (FeSSIF), listed as Phosphate Salt): 1.067 mg/mL | Solubility in mg/ml after 24 h ([1]; HIF, fed, listed as Phosphate Salt): 0.00141 mg/mL | Solubility in mg/ml after 24 h ([1]; Human gastric fluid (HGF), listed as Phosphate Salt): 0.0115 mg/mL | Solubility in mg/ml after 24 h ([1]; Human intestinal fluid (HIF) fasted, listed as Phosphate Salt): 0.00223 mg/mL | Solubility in mg/ml after 24 h ([1]; Simulated Gastric Fluid (SGF), listed as Phosphate Salt): 0.088 mg/mL | solubility in common organic solvents (in words) [1]: sparingly soluble | Solubility ([1]; initial solubility test, Water, listed as Phosphate): 1700 µg/mL | Solubility ([1]; initial solubility test, pH3 Buffer, listed as Phosphate): 39 µg/mL | Solubility in mg/ml after 24 h ([1]; pH 1 HCl, listed as Phosphate Salt): 0.089 mg/mL | Solubility ([1]; pH 6.8 buffer): ca. 0.00009 mg/mL | Solubility in mg/ml after 24 h ([1]; ph 4.5 Acetate, listed as Phosphate Salt): 0.731 mg/mL | Solubility ([1]; water (free base: pH 6.67)): 1300 µg/mL | amount of degradation products by HPLC (peak area) [2]: ≤ 1.4% | XRPD after compression ([3]; 300 mg, 5 minutes at 4000 pounds, hydraulic press): No change of crystalline modification | XRPD after crystallization by evaporation ([3]; 25° C., solution stirred during evaporation): form A was consistently obtained | XRPD after crystallization by evaporation ([3]; 25° C., without stirring, 1:1 solutions of water with ethanol, 2-propanol, acetone, tetrahydrofuran): amorphous material was obtained | XRPD after crystallization by evaporation ([3]; 50° C., solution stirred): Form A was also obtained | XRPD Result, crystallization by evaporation ([3]; 50° C., 2-propanol/water 1:1): — | XRPD Result, crystallization by evaporation ([3]; 50° C., Acetone/water 1:1): — | XRPD Result, crystallization by evaporation ([3]; 50° C., Acetonitrile/water 1:1): Amorphous | XRPD Result, crystallization by evaporation ([3]; 50° C., Ethanol/water 1:1): Amorphous | XRPD Result, crystallization by evaporation ([3]; 50° C., Methanol/water 1:1): — | XRPD Result, crystallization by evaporation ([3]; 50° C., Tetrahydrofuran/water 1:1): — | XRPD after equilibration with solvents ([3]; at least 24 h at about 50° C., solvents of Table 7): No new XRPD pattern was observed | XRPD after equilibration with solvents ([3]; at least 24 h at room temperature, solvents of Table 6): No new XRPD pattern was observed | XRPD after crystallization from hot saturated solution ([3]; 1:1 solutions of water with methanol, ethanol, 2-propanol, acetone, tetrahydrofuran): No change in polymorphic form | XRPD after crystallization from hot saturated solution ([3]; DMSO): form change noted | XRPD after precipitation by addition of anti-solvent ([3]; dissolved in DMSO, anti-solvents methanol, ethanol, isopropanol, acetone, acetonitrile, THF, ethyl acetate, propyl acetate, toluene, methyl t-butyl ether, 1,4-dioxane, methylene chloride): No change in Form | XRPD after granulation ([3]; wetted with water or ethanol, ground, dried at around 40° C.): no changes in the XRPD spectra
Compound: CCN1CCN(c2ccc(Nc3cc(N(C)C(=O)Nc4c(Cl)c(OC)cc(OC)c4Cl)ncn3)cc2)CC1 [Phosphate salt (form A)]
